Assay results taken from patent US5256788A, “Moranoline derivatives and their production and the use of moranoline and its derivatives as a stabilizing agent for enzymes” (Nippon Shinyaku Co. Ltd., priority 1989, dated 1993).

What was measured:
[1] = molecular target: T1, immobilized CGTase (Geobacillus stearothermophilus, UniProt P31797); assay: Stabilization of immobilized CGTase in sugar transfer reaction solution of moranoline (enzyme activity retention rate); type: biochemical, Bacillus stearothermophilus; conditions: 2.5 w/v% moranoline and 25 w/v% Amicol No. 6L
T1 construct: purchased Hayashibara Biochemical Research Institute
T1 sequence (P31797 32-711): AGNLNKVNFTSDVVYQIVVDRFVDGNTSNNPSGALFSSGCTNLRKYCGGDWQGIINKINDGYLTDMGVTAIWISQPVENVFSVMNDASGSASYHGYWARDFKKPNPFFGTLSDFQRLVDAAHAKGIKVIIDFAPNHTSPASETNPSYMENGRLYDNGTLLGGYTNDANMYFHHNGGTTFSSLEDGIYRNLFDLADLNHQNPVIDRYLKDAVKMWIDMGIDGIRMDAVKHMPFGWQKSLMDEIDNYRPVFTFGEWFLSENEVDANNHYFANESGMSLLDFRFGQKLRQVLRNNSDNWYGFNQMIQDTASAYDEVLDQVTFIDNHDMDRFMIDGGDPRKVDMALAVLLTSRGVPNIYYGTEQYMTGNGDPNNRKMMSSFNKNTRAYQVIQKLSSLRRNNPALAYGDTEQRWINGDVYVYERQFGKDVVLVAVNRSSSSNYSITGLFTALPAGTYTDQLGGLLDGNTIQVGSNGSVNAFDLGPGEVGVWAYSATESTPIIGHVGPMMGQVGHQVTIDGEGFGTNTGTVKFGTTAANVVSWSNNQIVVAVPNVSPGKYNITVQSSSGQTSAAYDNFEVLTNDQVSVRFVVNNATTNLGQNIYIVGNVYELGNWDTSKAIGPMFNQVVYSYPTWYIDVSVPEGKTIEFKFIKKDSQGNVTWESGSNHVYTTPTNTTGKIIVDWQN
Experimental: (§1) The immobilized CGTase, 10 ml, obtained in Reference Example 1 was added to 100 ml of aqueous solution with the pH being not adjusted containing 2.5 w/v% of moranoline and 25 w/v% of Amicol No. 6L [manufactured by Nichiden Chemical Co., Ltd.] followed by rotary shaking at 55° C. Thereafter, beads formed and (after a definite period of time as illustrated below) the beads (immobilized CGTase) were filtered through a glass filter. After thoroughly washing with water, the enzyme activity of the immobilized CGTase was determined as follows.
(§2) The beads (washed immobilized CGTase after a definite period of time at 55° C.), 1 ml, was added to 10 ml of aqueous solution with the pH being not adjusted containing 2.5 w/v% of moranoline and 25 w/v% of Amicol No. 6L followed by reacting at 55° C. for 24 hours. The reaction solution 3 ml, was passed through 7 ml of strongly acidic ion exchange resin DOWEX 50W×2 (H ). After thoroughly washing with water, elution was performed with 0.5N ammonia water. The eluate was concentrated to dryness under reduced pressure and the residue was dissolved in 3 ml of water. 10 μl of the solution was applied to and analyzed by high performance liquid chromatography to determine a concentration of the unreacted moranoline. The analytical conditions for high performance liquid chromatography were as follows: column (Nucleosil 5NH2, 5 μm, 4 mm i.d.×25 cm), developing solvent acetonitrile-water=70:30), detector (Hitachi 655A-30, RI detector), data processor (Hitachi D-2000). [formula]
Where the reaction progress rate was made 100 when rotary shaking started at 55° C., a relative reaction progress rate after a definite period of time passed was calculated according to the above equation. The thus obtained value was made an enzyme activity retention rate. The fact that the enzyme activity of the immobilized CGTase was stabilized by the moranoline in accordance with the present invention is clearly shown.
as §1, with “Example A” for “Example 1”, “C. After” for “C. Thereafter, beads formed and (after”, “time passed,” for “time as illustrated below)”, “follows. (Method for determination of enzyme activity of immobilized CGTase)” for “follows.”
as §2, with “24 hours” for “24 hours.”, “reaction liquid,” for “reaction solution”, “DOWEX 50W X 2 (H+).” for “DOWEX 50W×2 (H ).”, “mm i.d. X 25” for “mm i.d.×25”
Where the reaction progress rate was made 100 when rotary shaking started at 55° C., a relative reaction progress rate after a definite period of time passed was calculated according to the above equation. The thus obtained value was made an enzyme activity retention rate.

[2] = molecular target: β-amylase (Glycine max, UniProt P10538); assay: Stabilization of β-amylase by moranoline; type: biochemical, soybean; conditions: 6000 μg/ml, incubated at 65° C., pH 4.8
Sequence of β-amylase (P10538 whole entry): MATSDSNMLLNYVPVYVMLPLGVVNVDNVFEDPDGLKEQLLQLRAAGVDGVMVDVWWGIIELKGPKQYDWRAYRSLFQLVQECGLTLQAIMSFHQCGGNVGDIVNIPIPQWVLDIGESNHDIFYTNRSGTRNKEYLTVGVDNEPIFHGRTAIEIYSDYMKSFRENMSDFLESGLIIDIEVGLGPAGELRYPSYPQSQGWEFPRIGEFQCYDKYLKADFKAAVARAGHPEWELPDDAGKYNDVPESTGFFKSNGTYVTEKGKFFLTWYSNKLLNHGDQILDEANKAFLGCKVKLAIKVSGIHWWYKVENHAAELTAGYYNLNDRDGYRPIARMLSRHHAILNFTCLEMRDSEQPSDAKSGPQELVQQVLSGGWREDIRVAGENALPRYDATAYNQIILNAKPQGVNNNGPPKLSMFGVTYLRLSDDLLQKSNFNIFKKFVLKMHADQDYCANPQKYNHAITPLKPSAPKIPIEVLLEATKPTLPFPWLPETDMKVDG
Experimental: For control, a sample added with no moranoline was used.
The activity of β-amylase was determined by the 3,5-dinitrosalicylic acid method of Example 37.

Q: How did the activity at 25000 µg/mL ([1]; 0 h, day 0, 55° C., start made 100) turn out when `OC[C@H]1NC[C@H](O)[C@@H](O)[C@@H]1O` [moranoline] was run?
A: 100%

Q: And the activity at 25000 µg/mL ([1]; 336 h, day 14, 55° C.)?
A: 100%

Q: And the activity at 25000 µg/mL ([1]; 504 h, day 21, 55° C.)?
A: 103%

Q: And the activity at 25000 µg/mL ([1]; 672 h, day 28, 55° C.)?
A: 102%

Q: And the activity at 25000 µg/mL ([1]; 888 h, day 37, 55° C.)?
A: 101%

Q: What about the activity at 25000 µg/mL ([1]; 1272 h, day 53, 55° C.) of the same compound?
A: 102%

Q: And the activity at 25000 µg/mL ([1]; 1560 h, day 65, 55° C.)?
A: 104%

Q: What about the activity at 25000 µg/mL ([1]; 1872 h, day 78, 55° C.) of the same compound?
A: 101%

Q: And the activity at 25000 µg/mL ([1]; 2232 h, day 93, 55° C.)?
A: 99.7%

Q: And the activity at 25000 µg/mL ([1]; 2400 h, day 100, 55° C.)?
A: 100%

Q: And the activity at 25000 µg/mL ([1]; 2856 h, day 119, 55° C.)?
A: 97%

Q: What about the activity at 25000 µg/mL ([1]; 3360 h, day 140, 55° C.) of the same compound?
A: 100%

Q: And the activity at 25000 µg/mL ([1]; 3912 h, day 163, 55° C.)?
A: 99.3%

Q: And the activity at 25000 µg/mL ([1]; 4272 h, day 178, 55° C.)?
A: 98.4%

Q: What about the activity at 25000 µg/mL ([1]; 4752 h, day 198, 55° C.) of the same compound?
A: 92.5%

Q: And the activity at 25000 µg/mL ([1]; 5040 h, day 210, 55° C.)?
A: 95.6%

Q: And the activity at 25000 µg/mL ([1]; 5544 h, day 231, 55° C.)?
A: 92.5%

Q: What about the activity at 25000 µg/mL ([1]; 5904 h, day 246, 55° C.) of the same compound?
A: 93%

Q: What about the activity at 25000 µg/mL ([1]; 6288 h, day 262, 55° C.) of the same compound?
A: 92.3%

Q: What about the activity at 25000 µg/mL ([1]; 6576 h, day 274, 55° C.) of the same compound?
A: 92.5%

Q: And the activity at 25000 µg/mL ([1]; 6912 h, day 288, 55° C.)?
A: 91.7%

Q: What about the activity at 25000 µg/mL ([1]; 7248 h, day 302, 55° C.) of the same compound?
A: 92%

Q: What about the activity at 25000 µg/mL ([1]; 7728 h, day 322, 55° C.) of the same compound?
A: 92.7%

Q: What about the activity at 25000 µg/mL ([1]; 8136 h, day 339, 55° C.) of the same compound?
A: 91.5%

Q: What about the activity at 25000 µg/mL ([1]; 8472 h, day 353, 55° C.) of the same compound?
A: 93.9%

Q: What about the activity at 25000 µg/mL ([1]; 8784 h, day 366, 55° C.) of the same compound?
A: 90%

Q: And the activity at 25000 µg/mL ([1]; 9912 h, day 413, 55° C.)?
A: 90%

Q: What about the “stabilizing action (residual activity, FIG. 6)” value [2] of the same compound?
A: stabilizing action
